Results published in BigSolDB 2.1.

## Oc1ccc(/C=C/c2cc(O)cc(O)c2)cc1
In THF, 278.2 K
  solubility (mole fraction): 0.104
In THF, 288.2 K
  solubility (mole fraction): 0.106
In THF, 298.2 K
  solubility (mole fraction): 0.109
In THF, 308.2 K
  solubility (mole fraction): 0.112
In THF, 318.2 K
  solubility (mole fraction): 0.114
In acetone, 278.2 K
  solubility (mole fraction): 0.0849
In acetone, 288.2 K
  solubility (mole fraction): 0.0859
In acetone, 298.2 K
  solubility (mole fraction): 0.0866
In acetone, 308.2 K
  solubility (mole fraction): 0.0874
In acetone, 318.2 K
  solubility (mole fraction): 0.0886
In ethanol, 278.2 K
  solubility (mole fraction): 0.0117
In ethanol, 288.2 K
  solubility (mole fraction): 0.0139
In ethanol, 298.2 K
  solubility (mole fraction): 0.0169
In ethanol, 308.2 K
  solubility (mole fraction): 0.0198
In ethanol, 318.2 K
  solubility (mole fraction): 0.0223
In ethyl acetate, 278.2 K
  solubility (mole fraction): 0.0062
In ethyl acetate, 288.2 K
  solubility (mole fraction): 0.0106
In ethyl acetate, 298.2 K
  solubility (mole fraction): 0.0164
In ethyl acetate, 308.2 K
  solubility (mole fraction): 0.0214
In ethyl acetate, 318.2 K
  solubility (mole fraction): 0.0254
In isopropanol, 278.2 K
  solubility (mole fraction): 0.0053
In isopropanol, 288.2 K
  solubility (mole fraction): 0.0062
In isopropanol, 298.2 K
  solubility (mole fraction): 0.009
In isopropanol, 308.2 K
  solubility (mole fraction): 0.011
In isopropanol, 318.2 K
  solubility (mole fraction): 0.0138
In methanol, 278.2 K
  solubility (mole fraction): 0.0108
In methanol, 288.2 K
  solubility (mole fraction): 0.012
In methanol, 298.2 K
  solubility (mole fraction): 0.0135
In methanol, 308.2 K
  solubility (mole fraction): 0.0151
In methanol, 318.2 K
  solubility (mole fraction): 0.0166
In n-butanol, 278.2 K
  solubility (mole fraction): 0.0041
In n-butanol, 288.2 K
  solubility (mole fraction): 0.0058
In n-butanol, 298.2 K
  solubility (mole fraction): 0.0083
In n-butanol, 308.2 K
  solubility (mole fraction): 0.0103
In n-butanol, 318.2 K
  solubility (mole fraction): 0.0122
In n-hexanol, 278.2 K
  solubility (mole fraction): 0.004
In n-hexanol, 288.2 K
  solubility (mole fraction): 0.0052
In n-hexanol, 298.2 K
  solubility (mole fraction): 0.0075
In n-hexanol, 308.2 K
  solubility (mole fraction): 0.0087
In n-hexanol, 318.2 K
  solubility (mole fraction): 0.0108
In n-pentanol, 278.2 K
  solubility (mole fraction): 0.004
In n-pentanol, 288.2 K
  solubility (mole fraction): 0.0055
In n-pentanol, 298.2 K
  solubility (mole fraction): 0.0093
In n-pentanol, 308.2 K
  solubility (mole fraction): 0.0109
In n-pentanol, 318.2 K
  solubility (mole fraction): 0.0143
In n-propanol, 278.2 K
  solubility (mole fraction): 0.0068
In n-propanol, 288.2 K
  solubility (mole fraction): 0.0088
In n-propanol, 298.2 K
  solubility (mole fraction): 0.0113
In n-propanol, 308.2 K
  solubility (mole fraction): 0.0128
In n-propanol, 318.2 K
  solubility (mole fraction): 0.0153
